From patent publication US20190002492A1, “DERIVATIVES OF ALLOPR[…] OF EPIALLOPR[…] USES THEREOF FOR TREATING A NEUROPATHOLOGICAL CONDITION” (UNIVERSITE DE STRASBOURG, priority 2011, published 2019)
Entries after “also recorded” stand apart in the source; their conditions may differ. Where a name gives a salt, the structure may show the parent alone.

What was measured:
Sprague-Dawley rats [1] = experiment: Von Frey filament test, painful neuropathy caused by vincristine; format: in vivo, rat
Description: (§1) Adult male Sprague-Dawley rats weighing between 250 and 300 g were used. They came from the company Janvier (le Genest St. Isle, France). The care and handling of the animals were done in accordance with the guidelines from the Council of the European Community (86/609/EC) and in accordance with the ethical rules of the International Association for the Study of Pain. The protocol used to carry out the in vivo studies was subject to examination and authorization granted to Prof. Mensah-Nyagan's team by the Alsatian Department of the Veterinary Public Health Guide for the Care and Use of Laboratory Animals (Approval number 67-186). The rats were housed under standard conditions with a photoperiod of 12 h day/12 h night, with unlimited food and water. The animals spent one acclimatization week before being integrated into the experimental protocols. Each animal was examined daily to detect any signs of deterioration of its health condition, such as dramatic weight loss, a decrease in appetite during chemotherapy and pharmacological treatment.
(§2) Vincristine sulfate (VINC), purchased from Sigma-Aldrich (St. Louis, Mo., USA), was dissolved in a physiological saline solution (NaCl 0.9%) at 0.1 mg/ml and stored at 4° C. The saline solution (NaCl 0.9%) is used as excipient. The VINC is injected daily by intraperitoneal injection (i.p.), in 2 cycles of 5 days separated by 2 days off, at a concentration of 0.1 mg/kg/day. The control animals were injected by i.p. (1 ml/kg) with the excipient using a similar protocol.
(§3) The allopregnanolone in the derivatives according to the invention (BR053 and BR297) were diluted in a hydroxypropylcellulose (HPC) solution (0.3%) used as excipient. The curative treatment with allopregnanolone, BR053 or BR297 began 3 days after the vincristine cycles. Each of these compounds (allopregnanolone, BR053 or BR297) was administered by the intraperitoneal route at a dose of 4 mg/kg at a rate of one injection every 2 days. Thus, over the total duration of the in vivo experiments (14 days), each animal received 7 injections of excipient, allopregnanolone, BR053 or BR297, based on its group, at a dose of 4 mg/kg. The animals were sacrificed 24 hours after the last behavioral test (28th day) to remove tissues that will be used for later histology and electrophysiology studies.
(§4) The mechanical nociceptive sensitivity threshold was evaluated in rats placed in individual Plexiglas boxes (30×30×25 cm) mounted on a raised mesh support thereby allowing access to the surface or arch of the back feet. The presence of allodynia (exaggerated response following a normally […] stimulation) was measured using a series of calibrated von Frey filaments (1, 2, 4, 6, 8, 10, 15, 26, 100, 180 and 300 g; Stoelting, Wood Dale, Ill., USA), which were applied on the sole of the back foot of the animal with increasing force until the filament twisted. The filament was applied for a period of 1 to 2 seconds and the procedure was repeated 5 times at 4-5 second intervals. The withdrawal threshold of the foot was calculated by taking the average of […] repeated stimuli (in grams) that caused a reflex to withdraw the foot. Only vigorous and fast withdrawals of the foot were considered positive. In the experiments, the naïve animals never responded to the 4 g filament and responded 25-30% of the time to the 15 g filament.

Sprague-Dawley rats [2] = experiment: Von Frey mechanical nociceptive sensitivity threshold in healthy animals not treated with vincristine; format: in vivo, rat; conditions: 4 mg/kg every 2 days for 2 weeks
Description: as §1, §3
as §4, with “In the experiments, the naïve animals never responded to the 4 g filament and responded 25-30% of the time to the 15 g filament.” left out

[3] = tested on: type A GABA channel receptors (GABAa-R); experiment: Whole-cell patch-clamp, effect on GABA-induced ionic current; format: cell-based, human; conditions: 0.25 μM compound, GABA 10 μM in the recording pipette; for Effect on the type A GABA receptor channel or GABAa-R: whole cell patch-clamp
Experimental: The studies were conducted using an electrophysiological approach. The activity of the cells was recorded using the patch-clamp technique in its so-called whole cell configuration. The mediums used for the recordings have the following composition (in mM): NaCl ([…]), KCl (2), CaCl2 (1), MgCl2 (2), HEPES (10) for the medium bathing the cells and NaCl (132), KCl (2), CaCl2 (1), MgCl2 (2), TEA (15), HEPES (10) for the recording pipette, the pH was adjusted in both cases to 7.4 with NaOH. The GABA 10 μM was added into the recording pipette.
After producing a “gigaseal” (Planar patch clamp) between the cellular membrane and the tip of a pipette with an electrical resistance comprised between 4 and 7 MO, the ionic currents were measured using a patch-clamp amplifier (Axopatch B200, Axon Instruments, CA). The acquisition of the signal (acquisition frequency of 10 kHz) was done using an interface card (Digidata 1322A, Axon Instruments, CA) and the pClamp 8 software (Axons Instruments, CA).
The allopregnanolone and the BR053, BR338, BR297 and BR351 derivatives were solubilized in pure ethanol before being diluted in the medium to the desired concentration. The dilution factor was at least equal to 2×10^4, which makes the final concentration of ethanol in the recording solution remain below […] (a concentration not affecting the activity of the GABAa receptor).
Depending on the experiments, the allopregnanolone or the BR053, BR338, BR297 or BR351 derivatives, at the concentration of 0.25 μM, were either added in the recording pipette at the same time as the GABA, or applied to the cell by perfusion.
The application was done by gravity through a multi-path perfusion system made up of glass tubes each having an inner diameter of 1 mm. The selected path was placed across from the recorded cell at approximately 100 μm. The solution was changed by calibrated rotation of the tubes using a stepping motor thus placing the new selected path across from the cell. Synchronously with that rotation, the solenoid valve controlling the flow of the selected path was also opened and the preceding one closed.

Sprague-Dawley rats [4] = experiment: Acetone test of thermal allodynia to cold, painful neuropathy caused by vincristine; format: in vivo, rat
Description: as §1, §2, §3
The thermal nociceptive sensitivity threshold to cold was measured in rats placed in individual Plexiglas boxes (30×30×25 cm) mounted on a raised mesh support so as to allow access to the sole of the animal's foot. […] Six measurements (3 per foot) were performed with a latency of 5 minutes between each stimulation. The average latency for withdrawal of the feet (in seconds) was calculated by averaging 6 measurements at each studied point in time. […]

[5] = tested on: SH-SY5Y human neuroblastomas; experiment: Neuroprotection against cell death caused by oxidizing stress (H2O2), MTT readout; format: cell-based; set-up: key to Neuroprotective effect against cell death caused by oxidizing stress: −: no effect; +: low effect; ++: high effect; +++: very high effect; conditions: H2O2 1 mM; for Neuroprotective effect against cell death caused by oxidizing stress: SH-SY5Y cultures, 24 or 48 hours, MTT; for Protection of human neuroblastomas from cell death caused by H2O2 (in words): SH-SY5Y
Experimental: (§5) The cellular model used to carry out the in vitro experiments is a line of human neuroblastomas called line SH-SY5Y.
(§6) The human neuroblastoma is a cultivated at 37° C. in a humidity saturated atmosphere, under 5% CO2 in a culture medium formed by DMEM with an added 10% (v/v) fetal calf serum, 5% (v/v) horse serum, 2 mM glutamax and 1% (v/v) of the penicillin/streptomycin mixture.
The human neuroblastomas were incubated with the culture medium alone or containing the chief inducing agent of oxidizing stress, hydrogen peroxide (H2O2), at various concentrations in order to determine the concentrations of H2O2 and the incubation times causing the death of a significant percentage of the cells. The neuroprotective properties of the BR053, BR338, BR297 and BR351 derivatives were determined by pretreating the SH-SY5Y cells with the culture medium alone or respectively containing the BR053, BR338, BR297 or BR351 derivative. After pretreatment, each of these categories of cells was integrated for 24 hours or 48 hours with the following solutions: (i) culture medium; (ii) culture medium containing only the BR053, BR338, BR297 or BR351 derivative; (iii) culture medium containing only H2O2 at a concentration of 1 mM, which causes a high percentage of cell death; (iv) culture medium containing both H2O2 (1 mM) and one of the BR053, BR338, BR297 or BR351 derivatives.
10 μl of a stock solution of tetrazolium, abbreviated MTT, at 3.6 mM was added in each well and the incubation continued in darkness for 5 h at 37° C. After cell lysis, spectrophotometer measurements at 595 nm were carried out to determine the survival and cell density under each of the conditions described above.

[6] = tested on: SH-SY5Y human neuroblastomas; experiment: MTT assay of cell viability and density: effect on cell proliferation; format: cell-based; set-up: key to Effect on cell proliferation (neural proliferative effect): −: no effect; +: low effect; ++: high effect; +++: very high effect; conditions: SH-SY5Y cultures
Experimental: as §5, §6
The cellular viability and the density (or number of SH-SY5Y cells/cm^2) were determined using the MTT reduction assay. The MTT technique is a colorimetric test that measures the reduction of the tetrazolium salt (3-[4,5-dimethylthiazol-2-yl]-2,5-diphenyl tetrazolium bromide) in formazan by the succinate dehydrogenase present in the mitochondria of the living cells. The formazan forms blue crystals. Thus, after solubilization of the crystals, the measurement of the absorbance at 595 nm makes it possible to obtain absorbency values directly proportional to the number of viable cells and the cell density in the culture boxes.
The effects of derivatives BR053, BR338, BR297 and BR351 on cell proliferation were evaluated by comparing the number of viable cells and the cell density in the control culture boxes, treated only with the culture medium described in paragraph A1 above, and the culture boxes exposed to the culture medium with the added BR053, BR338, BR297 or BR351 derivatives.

[7] = rats with vincristine neuropathy, 4 mg/kg i.p. every 2 days for 2 weeks

Compound | Effect on mechanical allodynia and mechanical hyperalgesia (Sprague-Dawley rats [1]; [7]) | Anti-nociceptive effect in healthy animals (Sprague-Dawley rats [2]) | Mechanical nociceptive sensitivity threshold after treatment (Sprague-Dawley rats [2]; 80 g before) [g] | Effect on the type A GABA receptor channel or GABAa-R [3] | Effect on the type A GABA receptor channel or GABAa-R ([3]; listed as allopregnanolone) | Effect on thermal allodynia to cold (Sprague-Dawley rats [4]; [7]) | Von Frey filament that causes more than 70% of responses (Sprague-Dawley rats [1]; rats after vincristine 0.1 mg/kg/day i.p., 2 cycles of 5 days, 80 g before treatment) [g] | Responses to the 15 g filament (mechanical hyperalgesia) (Sprague-Dawley rats [1]; rats after vincristine chemotherapy, 30% before) [%] | Responses to the 4 g filament (mechanical allodynia) (Sprague-Dawley rats [1]; rats after vincristine chemotherapy, no response before treatment) | Latency for withdrawal of the foot, acetone test (Sprague-Dawley rats [4]; rats after vincristine chemotherapy, 20 seconds before) [s] | Neuroprotective effect against cell death caused by oxidizing stress [5] | Protection of human neuroblastomas from cell death caused by H2O2 (in words) [5] | Effect on cell proliferation (neural proliferative effect) [6] | Effect on the proliferation of human neuroblastomas (in words) [6] | Time until desensitization of the GABAa-R channel [3] [min]
CC(=O)[C@H]1CCC2C3CC[C@H]4C[C@H](O)CC[C@]4(C)C3CC[C@@]21C (stereo partly drawn) [Allopregnanolone, reference compound] | eliminates the symptoms | significant anti-nociceptive effect | 200 | Positive allosteric effect | positive allosteric effect | eliminates the symptoms | – | – | – | – | – | – | – | – | –
CC[C@]1(O)C[C@H]2CN(CCc3c([nH]c4ccccc34)[C@@](C(=O)OC)(c3cc4c(cc3OC)N(C=O)[C@H]3[C@@](O)(C(=O)OC)[C@H](OC(C)=O)[C@]5(CC)C=CCN6CC[C@]43[C@@H]65)C2)C1 [vincristine, Vincristine sulfate] | – | – | – | – | – | – | 20 | ~70 | more than 30% | 11 | – | – | – | – | –
CC(=O)[C@H]1CCC2C3CC[C@H]4C[C@H](O)CC[C@]4(C)C3CC(=O)[C@@]21C (stereo partly drawn) [BR338] | – | – | – | Positive allosteric effect | – | – | – | – | – | – | + | capable of protecting human neuroblastomas from the cell death | ++ | high effectiveness | –
C=CCO[C@@H]1CC[C@]2(C)C3CC[C@@]4(C)C(CC[C@@H]4C(C)=O)C3CC[C@H]2C1 (stereo partly drawn) [BR351] | – | – | – | only temporarily reproduces the positive allosteric effect; also recorded: Temporary positive allosteric | – | – | – | – | – | – | +++ | capable of protecting human neuroblastomas from the cell death | +++ | very high effectiveness | 1
